{
  "source": "patent EP1984014B1",
  "about": "“USE OF TPO PEPTIDE COMPOUNDS AND PHARMACEUTICAL COMPOSITIONS IN THE TREATMENT OF ANEMIA” (Janssen Pharmaceutica NV, priority 2006, dated 2007)",
  "key": {"[1]": {"system": "carboplatin-treated mice", "assay": "Example 4: lower doses (30, 100, 300ug/kg) as survival factor for erythrocyte lineages in carboplatin-treated mice", "format": "in vivo, BALB/c mouse", "experimental": "(§1) The effects of PEGylated TPO Compound No. 1 on mice treated with carboplatin were observed. For all examples herein, a 10 mg/ml stock solution of PEGylated TPO Compound No. 1 was prepared in sterile saline. For mixing, the preparation was placed on a gyratory shaker for 15min. at 200 rpm. This method was used to dissolve PEGylated TPO Compound No. 1 without foaming. The stock was filtered using a GV Millex (0.22um) filter. Dosing solutions were then prepared from this stock using sterile saline. The stock and dosing solutions were prepared fresh on the day of use.\nThe ability of PEGylated TPO Compound No. 1 to function as a survival factor for megakaryocyte and erythrocyte lineages in carboplatin-treated mice as determined by changes in hematological parameters was observed. […] In this study, the effect of lower doses of PEGylated TPO Compound No. 1 (i.e., 30, 100 and 300ug/kg) on the survival of erythrocyte lineages was examined to characterize the dose-response for this effect.\nThe groups of mice were treated with either carboplatin or vehicle (Phosphate Buffered Saline, PBS) by ip administration on Days -1 and 0 as delineated below. The optimal dose of carboplatin used to induce thrombocytopenia in the BALB/c mouse strain was previously determined to be a fractionated total dose of 120mg/kg given as two consecutive daily injections (i.e., 2x60mg/kg). Approximately one hour following the second dose of carboplatin, groups of mice were treated with PEGylated TPO Compound No. 1 or vehicle (sterile saline, SS, preservative-free 0.9% sodium chloride) by IV (bolus) injection as delineated in Table 4. The dose was administered on a per-weight basis (100ul/10g body weight).\nOn Days 6, 8 and 12, five mice in each test group were weighed and then euthanised using CO2-asphyxiation and exsanguinations via cardiac puncture. The blood samples were transferred to separate EDTA (lavender-top) microcontainers for hematologic evaluation. Groups of control mice (5) were processed on Days 6 & 12."}, "[2]": {"system": "mice treated with two rounds of carboplatin", "assay": "Example 5: two rounds of high-dose carboplatin, hematocrit and survival of mice", "format": "in vivo", "details": "of the mice not utilized for hematological evaluation; carboplatin alone versus combination therapy", "experimental": "as §1\nGroups of mice were treated with two rounds of the chemotherapeutic agent (carboplatin) ten days apart, with each round consisting of two consecutive days of carboplatin (i.e., 70 mg/kg/day administered on Days -1 & 0 and Days 10 & 11) as delineated below. The dose of carboplatin utilized for these survival studies exceeded the maximal tolerated dose for mice (i.e., 120 mg/kg; administered as 60 mg/kg/day on 2 consecutive days). One hour following the second dose of carboplatin in each round (i.e., Day 0 and 11) mice were treated with PEGylated TPO Compound No. 1 (100ug/kg) or vehicle (sterile saline, SS, preservative-free 0.9% sodium chloride) by IV (bolus) injection as delineated below. The dose was administered on a per weight basis (100 ul/10g body weight). […]"}, "[3]": {"system": "carboplatin treated mice", "assay": "Example 6: mechanistic study, increasing carboplatin doses, platelets, hematocrit, brain fibrinogen/fibrin histology", "format": "in vivo", "experimental": "as §1\nFor mechanistic studies, groups of mice were treated with vehicle or increasing amounts of carboplatin (i.e., 60, 70 or 80 mg/kg) for 2 consecutive days (Day -1 & Day 0). Approximately one hour following the second dose of carboplatin, groups of mice were treated with PEGylated TPO Compound No.1 (100ug/kg) or vehicle (sterile saline, SS, preservative-free 0.9% sodium chloride) by IV.(bolus) injection as delineated in Table 5.\nOn Day 15, the mice in all treatment groups were euthanised using CO2-asphyxiation and exsanguinations via cardiac puncture. The blood samples were transferred to separate EDTA (lavender-top) microtainers for hematologic evaluation. In addition, several organs (including the brains) of control mice and mice treated with 2x70 mg/kg carboplatin without and with co-treatment with PEGylated TPO Compound No.1 were isolated and processed for histological examination. Sections of these tissues were processed immunohistochemically for fibrinogen/fibrin."}, "[4]": {"target": "T1, human TPO receptor, c-mpl (hTPOr) (Homo sapiens, UniProt P40238)", "T1 construct": "expressed in transfected cells", "T1 sequence (P40238 26-635)": "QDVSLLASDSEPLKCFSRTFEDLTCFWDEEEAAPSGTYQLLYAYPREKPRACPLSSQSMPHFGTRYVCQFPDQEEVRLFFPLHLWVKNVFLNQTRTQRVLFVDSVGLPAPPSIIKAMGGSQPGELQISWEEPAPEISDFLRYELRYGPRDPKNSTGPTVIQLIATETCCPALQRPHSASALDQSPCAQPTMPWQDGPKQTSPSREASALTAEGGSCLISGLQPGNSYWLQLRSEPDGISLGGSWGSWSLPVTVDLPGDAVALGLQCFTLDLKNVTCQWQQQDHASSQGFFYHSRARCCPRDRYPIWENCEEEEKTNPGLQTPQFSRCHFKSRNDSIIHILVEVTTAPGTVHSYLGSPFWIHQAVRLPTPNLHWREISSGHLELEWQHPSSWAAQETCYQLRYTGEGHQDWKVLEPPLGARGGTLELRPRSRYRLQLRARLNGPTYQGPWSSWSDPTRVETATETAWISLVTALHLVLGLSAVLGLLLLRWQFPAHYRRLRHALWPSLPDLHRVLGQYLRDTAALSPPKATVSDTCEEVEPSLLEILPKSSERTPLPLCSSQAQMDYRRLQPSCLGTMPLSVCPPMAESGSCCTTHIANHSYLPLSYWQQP", "assay": "Example 7: Baf/3 hTPOr fos/lux luciferase reporter assay (relative luminescent units)", "format": "cell-based", "source_text": "The activity of the peptide compounds can be determined using standard relative luminescent units assay techniques. The assay employs, e.g., murine cells engineered to stably express the human TPO receptor and a luciferase reporter construct driven by the fos promoter. The assay may be performed as follows: Serum deprived Baf/3 hTPOr fos/lux cells expressing the human TPO receptor, c-mpl (hTPOr), and a luciferase reporter construct are exposed to increasing concentrations of either rhTPO or peptide compound for approximately 18 hours. Cells are then incubated in a medium containing a luciferase substrate and the luminescence of the cells is measured using a luminometer."}},
  "data": [
    {"substance": "Methoxypolyethyleneglycol20000-propionyl-L-Isoleucyl-L-Glutamyl-Glycyl-L-Prolyl-L-Threonyl-L-Leucyl-L-Arginyl-L-Glutaminyl-L-2-Naphthylalanyl-L-Leucyl-L-Alanyl-L-Alanyl-L-Arginyl-Sarcosyl-Ne-(methoxypolyethyleneglycol20000-propionyl-L-Isoleucyl-L-Glutamyl-Glycyl-L-Prolyl-L-Threonyl-L-Leucyl-L-Arginyl-L-Glutaminyl-L-2-Naphthylalanyl-L-Leucyl-L-Alanyl-L-Alanyl-L-Arginyl-Sarcosyl-)-Lysinamide [PEGylated TPO Compound No. 1]", "values": [
      {"measurement": "weight loss or recovery", "setting": "[1]; 13-Day study period", "value": "did not appear to affect weight loss or recovery"},
      {"measurement": "decreases in RBC counts and hematocrit induced by carboplatin treatment", "setting": "[1]; 30, 100, 300ug/kg iv Day 0", "value": "effectively inhibited"},
      {"measurement": "decrease in hemoglobin levels caused by carboplatin", "setting": "[1]; all doses (30, 100, 300ug/kg iv Day 0, about 1 h after carboplatin), by Day 12", "value": "totally inhibited"},
      {"measurement": "anemia induced by carboplatin", "setting": "[1]; all doses, on Day 12", "value": "completely prevent"},
      {"measurement": "altered appearance and behavior (hunched, unkempt, soft stool)", "setting": "[1]; appeared to be dose-dependent", "value": "decreased the onset, frequency and severity of these signs"},
      {"measurement": "mice that died between days 4 and 18", "setting": "[2]", "value": 1},
      {"measurement": "small vessels in brain sections, fibrinogen/fibrin staining", "setting": "[3]; 2x70mg/kg carboplatin plus 100ug/kg iv, Day 15", "value": "appeared normal or exhibited fibrinogen/fibrin staining that was only slightly darker than the control group"},
      {"measurement": "microthrombotic events in brain sections", "setting": "[3]; 2x70mg/kg carboplatin plus 100ug/kg iv, entire dose group", "value": "single"},
      {"measurement": "survival", "setting": "[3]; 2x80mg/kg carboplatin plus 100ug/kg iv, all of the mice", "value": "survived until the scheduled study termination"},
      {"measurement": "thrombocytopenia or anemia", "setting": "[3]; 2x80mg/kg carboplatin plus 100ug/kg iv, on Day 15", "value": "did not exhibit thrombocytopenia or anemia"},
      {"measurement": "decreases in platelet and RBC counts induced by the carboplatin", "setting": "[3]; carboplatin 2x60 or 2x70mg/kg, 100ug/kg iv about one hour after second carboplatin dose, Day 15", "value": "totally inhibited"},
      {"measurement": "fibrinogen deposition and blood clots in brain sections", "setting": "[3]; carboplatin treated mice, FIG. 19", "value": "reduces"},
      {"measurement": "EC50", "setting": "[4]; Baf/3 cells recombinantly expressing human TPO-R, approximately 18 hours", "value": "~5", "unit": "pM"},
      {"measurement": "activation of TPO-R compared with TPO", "setting": "[4]; at the same concentration as TPO", "value": "stronger activation"},
      {"measurement": "activation of Baf/3 cells recombinantly expressing human TPO-R", "setting": "[4]; increasing concentrations", "value": "dose dependent"}
    ]}
  ]
}
